The values below come from US12180156B2 (priority 2020, dated 2024).

Read-outs that look alike come from different tables or passages of the source.

The subject of data set [1] is FIPV. Description: Inhibitory activity against FIPV in cell culture (Table 1). In kind it is cell-based. Conditions: Alphacoronavirus 1, cell culture.
Data set [2] concerns SARS-CoV-2. Briefly: Cell-based assay for antiviral activity, plaque reduction in Vero E6 cells. The note with it: mean ± standard deviation.
The test system of data set [3] is SARS-CoV-2. Briefly: Cell-based assay for antiviral activity in A549-ACE2 cells. Conditions: Severe acute respiratory syndrome coronavirus 2, mean ± standard deviation.
Data set [4] in a line: Nonspecific cytotoxic effects (CytoTox 96 assay). Format: cell-based. Conditions: African green monkey (Vero E6) and cat (CRFK); Vero E6 and CRFK cells, 72 hr. As to the method: (§1) Nonspecific cytotoxic effects. […] Confluent cells grown in 96-well plates were incubated with various concentrations (1 to 100 μM) of each compound for 72 hr. Cell cytotoxicity was measured by a CytoTox 96 nonradioactive cytotoxicity assay kit (Promega, Madison, WI), and the CC50 values were calculated using a variable slope by GraphPad Prism software (Table 2).

Data set [5] concerns SARS-CoV-2. Format: in vivo, K18-hACE2 mice. The note with it: for lung edema average score: score 0-4.
The target in data set [6] is SARS-CoV-2 3CLpro (Severe acute respiratory syndrome coronavirus 2 (2019-nCoV) (SARS-CoV-2), UniProt P0DTD1). Description: biochemical. In kind it is biochemical.
Data set [7] has as its system Vero E6 and CRFK cells. Briefly: Nonspecific cytotoxic effects (CytoTox 96 assay). In kind it is cell-based. As to the method: as §1
Data set [8] has as its system SARS-CoV-2. Conditions: cited from earlier work.
Data set [9] deals with SARS-CoV2 (enzyme) (Severe acute respiratory syndrome coronavirus 2 (2019-nCoV) (SARS-CoV-2), UniProt P0DTD1). Description: Inhibitory activity against SARS-CoV2 enzyme (Table 1). Format: biochemical.
Setting [10] is: Severe acute respiratory syndrome coronavirus 2, Vero C1008, read-out: EC50 (μM) VeroE6, VeroE6 cells.
[11] abbreviates: read-out: EC50 (μM) VeroE6, VeroE6 cells.

In general, EC50 refers to the concentration giving half of the maximal effect. For `[2H]c1c([2H])c([2H])c(C([2H])([2H])OC(=O)N[C@@H](CC(C)C)C(=O)N[C@@H](C[C@@H]2CCNC2=O)C(O)S(=O)(=O)[O-])c([2H])c1[2H].[Na+]` (stereo in doubt) [Deuterated GC376-No1], the EC50 in [1] came out at 0.08 µM.

As usually defined, the CC50 is the concentration that lowers cell viability or growth by half. With `[2H]C([2H])(OC(=O)N[C@@H](CC(C)C)C(=O)N[C@H](C=O)C[C@@H]1CCNC1=O)c1ccccc1` [Compound 1, Phenylmethyl-d2 ((S)-4-methyl-1-oxo-1-(((S)-1-oxo-3-((S)-2-oxopyrrolidin-3-yl)propan-2-yl)amino)pentan-2-yl)carbamate], the EC50 in data set [2] (setting [10]) is 0.068 to 0.086 µM; in data set [2] (setting [11]) it was 0.068 ± 0.01 µM; in data set [3] it was 0.086 ± 0.01 µM. The molecule also came in with a CC50 at 72 h in data set [4] of over 100000 nM.

Take `[2H]C([2H])(OC(=O)N[C@@H](CC(C)C)C(=O)N[C@@H](C[C@@H]1CCNC1=O)C(O)S(=O)(=O)[O-])c1ccccc1.[Na+]` (stereo partly drawn) [Compound 2, Sodium (2S)-1-hydroxy-2-((S)-4-methyl-2-(((phenylmethoxy-d2)carbonyl)amino)pentan-amido)-3-((S)-2-oxopyrrolidin-3-yl)propane-1-sulfonate]: the figures for the EC50 in data set [2] (setting [10]), in data set [2] (setting [11]) and in [3] were 0.068 to 0.086 µM, 0.086 ± 0.02 µM and 0.069 ± 0.01 µM, respectively. Moreover, the “pathological changes and infectious virus in the brains” value in data set [5] (2 and 5 dpi, detection limit 200 PFU/g) is listed as “neither pathological changes nor infectious virus was detected”. The lung perivascular infiltrates result in [5] (2 dpi) was “Mild perivascular infiltrates”. The “lung edema average score” value in data set [5] (2 dpi) was 0; in [5] (5 dpi) it was 2. Besides, in [5] (2 dpi, second experiment), the “lung virus titers versus vehicle” value is reported as “statistically significant reduction of virus titers”. Besides, in [5] (first experiment: 2×10^3 pfu per mouse, 100 mg/kg/day once a day from 1 dpi, 15 dpi), the survival result is “All compound 2-treated mice gradually gained body weight and were alive at the end of the study”. Further, the body weight loss entry in [5] (first experiment: 2×10^3 pfu per mouse, 100 mg/kg/day, 5-10 dpi, versus vehicle) is “loss was less severe compared to vehicle-treated mice”. In addition, the “lung perivascular infiltrations average score” value in data set [5] (mouse, in vivo) is 2. In addition, in data set [4], the CC50 at 72 h was over 100000 nM.

What is called IC50 is the concentration needed to halve the response being measured. As for `[2H]C([2H])(OC(=O)N[C@@H](CC(C)C)C(=O)N[C@@H](C[C@@H]1CCNC1=O)C(OC(C)=O)S(=O)(=O)[O-])c1ccccc1.[Na+]` (stereo partly drawn) [Compound 3, Sodium (5S,8S)-5-isobutyl-3,6,11-trioxo-8-(((S)-2-oxopyrrolidin-3-yl)methyl)-1-phenyl-2,10-dioxa-4,7-diazadodecane-9-sulfonate-1,1-d2], in data set [6], 710 ± 60 nM corresponded to half-maximal inhibition (IC50); the “potency (IC50) in the enzyme assay compared to aldehyde and bisulfite counterparts” value is reported as “significantly increased IC50 values”. This molecule yielded a CC50 at 72 h in [4] of over 100000 nM.

Turning to `[2H]C([2H])(OC(=O)N[C@@H](CC(C)C)C(=O)N[C@@H](C[C@@H]1CCNC1=O)C(OC(=O)CCCCC)S(=O)(=O)[O-])c1ccccc1.[Na+]` (stereo partly drawn) [Compound 4, Sodium (5S,8S)-5-isobutyl-3,6,11-trioxo-8-(((S)-2-oxopyrrolidin-3-yl)methyl)-1-phenyl-2,10-dioxa-4,7-diazahexadecane-9-sulfonate-1,1-d2], in data set [6], it took 800 ± 100 nM to reach half-maximal inhibition (IC50); the “potency (IC50) in the enzyme assay compared to aldehyde and bisulfite counterparts” value was “significantly increased IC50 values”. The same molecule registered a CC50 at 72 h in data set [4] of over 100000 nM.

Take `[2H]C([2H])(OC(=O)N[C@@H](CC(C)C)C(=O)N[C@@H](C[C@@H]1CCNC1=O)C(=O)C(=O)NCc1ccccc1)c1ccccc1` [Compound 5, Phenylmethyl-d2 ((S)-1-(((S)-4-(benzylamino)-3,4-dioxo-1-((S)-2-oxopyrrolidin-3-yl)butan-2-yl)amino)-4-methyl-1-oxopentan-2-yl)carbamate]: in data set [6], the IC50 came to 1310 ± 550 nM; the “potency (IC50) in the enzyme assay compared to aldehyde and bisulfite counterparts” value was “markedly decreased potency”. The same molecule showed a CC50 at 72 h in data set [4] of over 100000 nM.

In the case of `[2H]c1c([2H])c([2H])c(COC(=O)N[C@@H](CC(C)C)C(=O)N[C@H](C=O)C[C@@H]2CCNC2=O)c([2H])c1[2H]` [Compound 6, (Phenyl-d5)methyl ((S)-4-methyl-1-oxo-1-(((S)-1-oxo-3-((S)-2-oxopyrrolidin-3-yl)propan-2-yl)amino)pentan-2-yl)carbamate], the EC50 is 0.068 to 0.086 µM in [2] (setting [10]), 0.077 ± 0.01 µM in data set [2] (setting [11]) and 0.075 ± 0.01 µM in [3]. This molecule came in with a cytotoxic concentration (CC50) at 72 h in data set [4] of over 100000 nM.

As to `[2H]c1c([2H])c([2H])c(COC(=O)N[C@@H](CC(C)C)C(=O)N[C@@H](C[C@@H]2CCNC2=O)C(O)S(=O)(=O)[O-])c([2H])c1[2H].[Na+]` (stereo partly drawn) [Compound 7, Sodium (2S)-1-hydroxy-2-((S)-4-methyl-2-((((phenyl-d5)methoxy)carbonyl)amino)pentanamido)-3-((S)-2-oxopyrrolidin-3-yl)propane-1-sulfonate], the EC50 in data set [2] (setting [10]) was 0.068 to 0.086 µM; in data set [2] (setting [11]), 0.079 ± 0.01 µM; in data set [3] it was 0.1 ± 0.01 µM. The 50% cytotoxic concentration (CC50) at 72 h in [4] was over 100000 nM.

Regarding `[2H]c1c([2H])c([2H])c(COC(=O)N[C@@H](CC(C)C)C(=O)N[C@@H](C[C@@H]2CCNC2=O)C(OC(=O)CCCCC)S(=O)(=O)[O-])c([2H])c1[2H].[Na+]` (stereo partly drawn) [Compound 8, Sodium (5S,8S)-5-isobutyl-3,6,11-trioxo-8-(((S)-2-oxopyrrolidin-3-yl)methyl)-1-(phenyl-d5)-2,10-dioxa-4,7-diazahexadecane-9-sulfonate], in data set [6], the IC50 was determined as 680 ± 350 nM; the “potency (IC50) in the enzyme assay compared to aldehyde and bisulfite counterparts” value is reported as “significantly increased IC50 values”. This molecule also had a CC50 at 72 h in [4] of over 100000 nM.

`[2H]c1c([2H])c([2H])c(C([2H])([2H])OC(=O)N[C@@H](CC(C)C)C(=O)N[C@H](C=O)C[C@@H]2CCNC2=O)c([2H])c1[2H]` [Compound 9, (Phenyl-d5)methyl-d2 ((S)-4-methyl-1-oxo-1-(((S)-1-oxo-3-((S)-2-oxopyrrolidin-3-yl)propan-2-yl)amino)pentan-2-yl)carbamate] gave a CC50 at 72 h in data set [4] of over 100000 nM.

`CC(C)C[C@H](NC(=O)OCc1ccccc1)C(=O)N[C@@H](C[C@@H]1CCNC1=O)C(O)S(=O)(=O)O` (stereo partly drawn) [Compound 10, Sodium(2S)-1-hydroxy-2-((S)-4-methyl-2-((((phenyl-d5)methoxy-d2)carbonyl)amino)pentanamido)-3-((S)-2-oxopyrrolidin-3-yl)propane-1-sulfonate] registered a CC50 in data set [7] (Vero E6 and CRFK cells, 72 hr) of over 100000 nM.

Regarding `[2H]c1c([2H])c([2H])c(C([2H])([2H])OC(=O)N[C@@H](CC(C)C)C(=O)N[C@@H](C[C@@H]2CCNC2=O)C(OC(=O)CCCCC)S(=O)(=O)[O-])c([2H])c1[2H].[Na+]` (stereo partly drawn) [Compound 11, Sodium (5S,8S)-5-isobutyl-3,6,11-trioxo-8-(((S)-2-oxopyrrolidin-3-yl)methyl)-1-(phenyl-d5)-2,10-dioxa-4,7-diazahexadecane-9-sulfonate-1,1-d2], in [6], the IC50 was found to be 770 ± 120 nM; the “potency (IC50) in the enzyme assay compared to aldehyde and bisulfite counterparts” value is recorded as “significantly increased IC50 values”. Further, in data set [4], the CC50 at 72 h is over 100000 nM.

Turning to `[2H]c1c([2H])c([2H])c(C([2H])([2H])OC(=O)N[C@@H](CC(C)C)C(=O)N[C@H](C=O)C[C@@H]2CCNC2=O)c([2H])c1[2H]` [Deuterated GC373-No1], the midpoint of the response in [1], the EC50, lay at 0.05 µM.

In turn, `[2H]C([2H])(OC(=O)N[C@@H](CC(C)C)C(=O)N[C@H](C=O)C[C@@H]1CCNC1=O)c1ccccc1` [Deuterated GC373-No2] had an EC50 in data set [1] of 0.05 µM.

For `CC(C)C[C@H](NC(=O)OCc1ccccc1)C(=O)N[C@@H](C[C@@H]1CCNC1=O)C(O)S(=O)(=O)[O-].[Na+]` (stereo partly drawn) [GC376, reference compound], the EC50 was determined as 0.23 ± 0.01 µM in data set [2] (setting [10]) and 0.05 µM in data set [1]. Further, the cytotoxicity entry in data set [7] (up to 100 μM) is “did not show any cytotoxicity”. In addition, the survival result in data set [8] (given three hours after virus inoculation that led to 100% fatality, versus vehicle) was “no difference in survival”. In addition, in data set [8] (given three hours after virus inoculation, versus vehicle-treated controls), the “viral load and inflammation in the lungs” value was “reduced viral load and inflammation”.

Take `CC(C)C[C@H](NC(=O)OCc1ccccc1)C(=O)N[C@H](C=O)C[C@@H]1CCNC1=O` [Parental aldehyde, reference compound]: the midpoint of the response in data set [1], the EC50, lay at 0.05 µM.

Turning to `[2H]C([2H])(OC(=O)N[C@@H](CC(C)C)C(=O)N[C@@H](C[C@@H]1CCNC1=O)C(OC(C)=O)S(=O)(=O)[O-])c1ccccc1.[Na+]` (stereo partly drawn) [Prodrug of GC1129-No1], the EC50 in data set [9] amounted to 0.7 µM; in data set [1], 0.06 µM.

For `[2H]C([2H])(OC(=O)N[C@@H](CC(C)C)C(=O)N[C@@H](C[C@@H]1CCNC1=O)C(OC(=O)CCCCC)S(=O)(=O)[O-])c1ccccc1.[Na+]` (stereo partly drawn) [Prodrug of GC1129-No2], the results for the EC50 in data set [9] and in [1] were 0.8 µM and 0.06 µM, respectively.
